Measured values taken from US9156801B2, “2-substituted oleanolic acid derivative, method preparing for same, and application thereof” (HANGZHOU BENSHENG PHARMACEUTICAL CO., LTD., priority 2011, dated 2015).
≈ marks a conversion by molar mass, not a printed value.

Experiments:
Hep G2 cell line = assay: solid tumor cell growth inhibition, MTT; assay type: cell-based, human; details: Homo sapiens; for inhibition at 16 µg/mL: HepG2, 72 h, Hep G2, 16 μg/mL compound, 72 h, read-out: IR (cell proliferation inhibition rate); for IC50: HepG2, Hep G2, 72 h
Summary of the method: (§1)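 Compound-treated cultures (72 h, 37° C, 5% CO2, DMEM high glucose with 10% FBS) were compared with untreated wells assigned 0% inhibition, using MTT to gauge relative living cells; seeding was 4000 cells per well, 24 h before treatment.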

RPMI8226 cell line = assay: multiple myeloma cell growth inhibition, MTT; assay type: cell-based; details: Homo sapiens, RPMI-8226; for inhibition at 16 µg/mL: RPMI8226, 16 μg/mL compound, 72 h, read-out: IR (cell proliferation inhibition rate); for IC50: RPMI8226, 72 h
Summary of the method: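 RPMI8226 cells (6000 per well) in RPMI 1640 with 10% FBS were exposed to several concentrations of compound for 72 h at 37° C and 5% CO2. Viable cells were quantified by MTT, with inhibition set to 0% in untreated controls.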

Becap37 cell line = assay: solid tumor cell growth inhibition, MTT; assay type: cell-based; details: Homo sapiens; for inhibition at 16 µg/mL: Becap37, 16 μg/mL compound, 72 h, read-out: IR (cell proliferation inhibition rate); for IC50: Becap37, 72 h
Summary of the method: as §1

RKO cell line = assay: solid tumor cell growth inhibition, MTT; assay type: cell-based; details: Homo sapiens, 72 h; for inhibition at 16 µg/mL: 16 μg/mL compound, read-out: IR (cell proliferation inhibition rate)
Summary of the method: as §1

A549 cell line = assay: solid tumor cell growth inhibition, MTT; assay type: cell-based; details: Homo sapiens; for IC50: A549, 72 h; for inhibition at 16 µg/mL: A549, 16 μg/mL compound, 72 h, read-out: IR (cell proliferation inhibition rate)
Summary of the method: as §1

SK-OV-3 cell line = assay: solid tumor cell growth inhibition, MTT; assay type: cell-based; details: Homo sapiens; for IC50: SK-OV-3, 72 h; for inhibition at 16 µg/mL: SK-OV-3, 16 μg/mL compound, 72 h, read-out: IR (cell proliferation inhibition rate)
Summary of the method: as §1

PANC-1 cell line = assay: solid tumor cell growth inhibition, MTT; assay type: cell-based; details: Homo sapiens; for IC50: PANC-1, 72 h; for inhibition at 16 µg/mL: PANC-1, 16 μg/mL compound, 72 h, read-out: IR (cell proliferation inhibition rate)
Summary of the method: as §1

CNE cell line = assay: solid tumor cell growth inhibition, MTT; assay type: cell-based; details: Homo sapiens, 72 h; for inhibition at 16 µg/mL: 16 μg/mL compound, read-out: IR (cell proliferation inhibition rate)
Summary of the method: as §1

Hela cell line = assay: solid tumor cell growth inhibition, MTT; assay type: cell-based; details: Homo sapiens, 72 h; for IC50: HeLa; for inhibition at 16 µg/mL: Hela, 16 μg/mL compound, read-out: IR (cell proliferation inhibition rate)
Summary of the method: as §1

CaES-17 cell line = assay: solid tumor cell growth inhibition, MTT; assay type: cell-based; details: Homo sapiens, CaEs17; for inhibition at 16 µg/mL: CaES-17, 16 μg/mL compound, 72 h, read-out: IR (cell proliferation inhibition rate); for IC50: CaES-17, 72 h
Summary of the method: as §1

Hep-2 cell line = assay: solid tumor cell growth inhibition, MTT; assay type: cell-based; details: Homo sapiens; for IC50: HEp-2, 72 h; for inhibition at 16 µg/mL: Hep-2, 16 μg/mL compound, 72 h, read-out: IR (cell proliferation inhibition rate)
Summary of the method: as §1

U87 MG cell line = assay: solid tumor cell growth inhibition, MTT; assay type: cell-based; details: Homo sapiens, U-87 MG, 72 h; for inhibition at 16 µg/mL: 16 μg/mL compound, read-out: IR (cell proliferation inhibition rate)
Summary of the method: as §1

PC-3 cell line = assay: solid tumor cell growth inhibition, MTT; assay type: cell-based; details: Homo sapiens; for IC50: PC-3, 72 h; for inhibition at 16 µg/mL: PC-3, 16 μg/mL compound, 72 h, read-out: IR (cell proliferation inhibition rate)
Summary of the method: as §1

MGC 803 cell line = assay: solid tumor cell growth inhibition, MTT; assay type: cell-based; details: Homo sapiens; for inhibition at 16 µg/mL: MGC 803, 16 μg/mL compound, 72 h, read-out: IR (cell proliferation inhibition rate); for IC50: MGC 803, 72 h
Summary of the method: as §1

MG-63 cell line = assay: solid tumor cell growth inhibition, MTT; assay type: cell-based; details: Homo sapiens; for IC50: MG-63, 72 h; for inhibition at 16 µg/mL: MG-63, 16 μg/mL compound, 72 h, read-out: IR (cell proliferation inhibition rate)
Summary of the method: as §1

Jurkat cell line = assay: leukemia cell growth inhibition, MTT; assay type: cell-based; details: Homo sapiens, 72 h; for inhibition at 16 µg/mL: 16 μg/mL compound, read-out: IR (cell proliferation inhibition rate)
Summary of the method: (§2)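 Leukemia cells (6000 per well) are grown in 1640 medium containing 10% fetal bovine serum, treated with several concentrations of test derivative, and incubated 72 hours at 37° C in 5% CO2. The relative viable count is then measured by MTT.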

NB4 cell line = assay: leukemia cell growth inhibition, MTT; assay type: cell-based; details: Homo sapiens, NB-4; for inhibition at 16 µg/mL: NB4, 16 μg/mL compound, 72 h, read-out: IR (cell proliferation inhibition rate); for IC50: NB4, 72 h
Summary of the method: as §2

K562/adr cell line = assay: leukemia cell growth inhibition, MTT; assay type: cell-based; details: Homo sapiens, 72 h; for IC50: K562/Adr; for inhibition at 16 µg/mL: K562/adr, 16 μg/mL compound, read-out: IR (cell proliferation inhibition rate)
Summary of the method: as §2

H9 cell line = assay: leukemia cell growth inhibition, MTT; assay type: cell-based; details: Homo sapiens; for IC50: H9, 72 h; for inhibition at 16 µg/mL: H9, 16 μg/mL compound, 72 h, read-out: IR (cell proliferation inhibition rate)
Summary of the method: as §2

Kasumi-1 cell line = assay: leukemia cell growth inhibition, MTT; assay type: cell-based; details: Homo sapiens; for inhibition at 16 µg/mL: Kasumi-1, 16 μg/mL compound, 72 h, read-out: IR (cell proliferation inhibition rate); for IC50: Kasumi-1, 72 h
Summary of the method: as §2

| SMILES | inhibition at 16 µg/mL (Hep G2 cell line) [%] | IC50 (Hep G2 cell line) [µg/mL] | inhibition at 16 µg/mL (RPMI8226 cell line) [%] | IC50 (RPMI8226 cell line) [µg/mL] | inhibition at 16 µg/mL (Becap37 cell line) [%] | IC50 (Becap37 cell line) [µg/mL] | inhibition at 16 µg/mL (RKO cell line) [%] | IC50 (RKO cell line) [µg/mL] | IC50 (A549 cell line) [µg/mL] | inhibition at 16 µg/mL (A549 cell line) [%] | IC50 (SK-OV-3 cell line) [µg/mL] | inhibition at 16 µg/mL (SK-OV-3 cell line) [%] | IC50 (PANC-1 cell line) [µg/mL] | inhibition at 16 µg/mL (PANC-1 cell line) [%] | inhibition at 16 µg/mL (CNE cell line) [%] | IC50 (CNE cell line) [µg/mL] | IC50 (Hela cell line) [µg/mL] | inhibition at 16 µg/mL (Hela cell line) [%] | inhibition at 16 µg/mL (CaES-17 cell line) [%] | IC50 (CaES-17 cell line) [µg/mL] | further results |
| --- | --- | --- | --- | --- | --- | --- | --- | --- | --- | --- | --- | --- | --- | --- | --- | --- | --- | --- | --- | --- | --- |
| CCN(CC)CCNC(=O)C1C[C@@]2(C)C(CC[C@]3(C)C2CC=C2C4CC(C)(C)CC[C@]4(C(=O)OC)CC[C@]23C)C(C)(C)C1=O (some centres unmarked) [BS-OA-012] | > 96 | 2.36 (≈ 3.86 µM) | 99 | 0.74 (≈ 1.21 µM) | 98.4 | 4.42 (≈ 7.23 µM) | 97.6 | 2 (≈ 3.27 µM) | 2.83 (≈ 4.63 µM) | 97.4 | 3.77 (≈ 6.17 µM) | 98.9 | 4.73 (≈ 7.74 µM) | 100 | 98.8 | 3.74 (≈ 6.12 µM) | 4.19 (≈ 6.86 µM) | 96.9 | 99.1 | 1.91 (≈ 3.13 µM) | IC50 (Hep-2 cell line): 5.5 µg/mL (≈ 9 µM); inhibition at 16 µg/mL (Hep-2 cell line): 99.9%; inhibition at 16 µg/mL (U87 MG cell line): 98.5%; IC50 (U87 MG cell line): 2.56 µg/mL (≈ 4.19 µM); IC50 (PC-3 cell line): 5.08 µg/mL (≈ 8.32 µM); inhibition at 16 µg/mL (PC-3 cell line): 99.7%; inhibition at 16 µg/mL (MGC 803 cell line): 100%; IC50 (MGC 803 cell line): 2.56 µg/mL (≈ 4.19 µM); IC50 (MG-63 cell line): 2.2 µg/mL (≈ 3.6 µM); inhibition at 16 µg/mL (MG-63 cell line): 100%; inhibition at 16 µg/mL (Jurkat cell line): 97%; IC50 (Jurkat cell line): 2.26 µg/mL (≈ 3.7 µM); inhibition at 16 µg/mL (NB4 cell line): 99.2%; IC50 (NB4 cell line): 2.79 µg/mL (≈ 4.57 µM); IC50 (K562/adr cell line): 1.09 µg/mL (≈ 1.78 µM); inhibition at 16 µg/mL (K562/adr cell line): 99%; IC50 (H9 cell line): 3.05 µg/mL (≈ 4.99 µM); inhibition at 16 µg/mL (H9 cell line): 95%; inhibition at 16 µg/mL (Kasumi-1 cell line): 99.3%; IC50 (Kasumi-1 cell line): 3.18 µg/mL (≈ 5.21 µM) |
| COC(=O)[C@]12CCC(C)(C)CC1C1=CCC3[C@@]4(C)CC(C(=O)NCCN5CCCC5)C(=O)C(C)(C)C4CC[C@@]3(C)[C@]1(C)CC2 (some centres unmarked) [BS-OA-005] | > 96 | 2.53 (≈ 4.15 µM) | 99.2 | 0.69 (≈ 1.13 µM) | 98.6 | 5.68 (≈ 9.33 µM) | 98.7 | 3.19 (≈ 5.24 µM) | 2.19 (≈ 3.6 µM) | 96.8 | 4.23 (≈ 6.95 µM) | 98.3 | 4.54 (≈ 7.46 µM) | 97.8 | 98.6 | 3.65 (≈ 5.99 µM) | 4.05 (≈ 6.65 µM) | 98.6 | 98.9 | 3.34 (≈ 5.49 µM) | IC50 (Hep-2 cell line): 5.09 µg/mL (≈ 8.36 µM); inhibition at 16 µg/mL (Hep-2 cell line): 99.2%; inhibition at 16 µg/mL (U87 MG cell line): 100%; IC50 (U87 MG cell line): 2.5 µg/mL (≈ 4.11 µM); IC50 (PC-3 cell line): 5.11 µg/mL (≈ 8.39 µM); inhibition at 16 µg/mL (PC-3 cell line): 99.2%; inhibition at 16 µg/mL (MGC 803 cell line): 99.3%; IC50 (MGC 803 cell line): 2.7 µg/mL (≈ 4.43 µM); IC50 (MG-63 cell line): 2.31 µg/mL (≈ 3.79 µM); inhibition at 16 µg/mL (MG-63 cell line): 99.7%; inhibition at 16 µg/mL (Jurkat cell line): 98.1%; IC50 (Jurkat cell line): 2.33 µg/mL (≈ 3.83 µM); inhibition at 16 µg/mL (NB4 cell line): 100%; IC50 (NB4 cell line): 2.73 µg/mL (≈ 4.48 µM); IC50 (K562/adr cell line): 1.16 µg/mL (≈ 1.91 µM); inhibition at 16 µg/mL (K562/adr cell line): 100%; IC50 (H9 cell line): 3.16 µg/mL (≈ 5.19 µM); inhibition at 16 µg/mL (H9 cell line): 96.2%; inhibition at 16 µg/mL (Kasumi-1 cell line): 99.8%; IC50 (Kasumi-1 cell line): 3.98 µg/mL (≈ 6.54 µM) |
